We go through nine compounds from patent US8410095B2, “Thiazolopyrimidinone derivatives as PI3 kinase inhibitors” (GlaxoSmithKline LLC, priority 2009, dated 2013).

One test concerns the target T1, PI3Kδ (Homo sapiens, UniProt O00329).
T1 construct: made in house
The test is described as follows: HTRF in vitro profiling assay for PI3K inhibition, delta isoform. The conditions noted are these: in at least one experimental run. The class given is biochemical. An excerpt:
(§1) HTRF In vitro Profiling Assays for PI3K Inhibition
(§2) The PI3-Kinase profiling assays were developed to measure the compound-dependent inhibition of the alpha, beta, delta, and gamma isoforms of PI3Kin an in vitro catalytic assay. This assay was developed and optimized from a kit produced by Upstate (Millipore catalog #33-017). Briefly, this procedure utilizes a pre-formed HTRF (Homogeneous Time-Resolved Fluorescence energy transfer) complex between four binding partners: 1) biotinylated PIP3, 2) GST tagged pleckstrin homology (PH) domain, 3) Europium labeled anti-GST monoclonal antibody, and 4) Streptavidin-Allophycocyanin (APC). The native PIP3 produced by PI 3-Kinase activity displaces biotin-PIP3 from the PH domain, resulting in the dissociation of the HTRF complex and a decrease in the fluorescence signal. The format of this assay is the same for all 4 isoforms of PI3K; the differences lie in the concentration of enzyme used to achieve the most robust signal. The alpha and delta assays are run at […] enzyme and the gamma assay is run at 1 nM enzyme. In addition, the alpha, beta and delta assays are run with 150 mM NaCl while the gamma assay is run in the absence of NaCl. The ATP concentration is 100 uM in the alpha, beta, and delta assays and 15 uM ATP in the gamma assay. All reactions are run at 10 uM PIP2
(§3) Compounds are serially diluted (3-fold in 100% DMSO) across a 384-well polypropylene mother plate from column I to column 12 and column 13 to column 24, to yield 11 concentrations for each test compound. Columns 6 and 18 contain only DMSO. Once titrations are made, 0.05 μL is transferred to a 384-well low-volume assay plate (Greiner 784076). This assay plate contains three pharmacological controls (known PI3K inhibitors) and 3 assay controls: (1) Enzyme without inhibitor; (2) Buffer minus enzyme, and (3) Buffer minus enzyme plus native PIP3. DMSO is stamped into all wells of columns 6 and 18. PIP3 is added at 40 μM in 1× Reaction buffer (1 μL of 200 μM PIP3) to alternating rows of column 18 (wells 18 B, D, F, H, J, L, N, P). The no-enzyme control reactions are run in wells 18 A, C, E, G, I, K, M, O (0.1 μL of 100% DMSO).
The PI3-Kinase profiling assay was optimized using the HTRF kit provided by Upstate (Millipore). The assay kit contains seven reagents: 1) 4× Reaction Buffer; 2) native PIP2 (substrate); 3) Stop A (EDTA); 4) Stop B (Biotin-PIP3); 5) Detection Mix A (Streptavidin-APC); 6) Detection Mix B (Eu-labeled Anti-GST plus GST-tagged PH-domain); 7) Detection Mix C (KF). In addition, the following items were obtained or purchased: PI3Kinase (prepared by GSK BR&AD), dithiothreitol (Sigma, D-5545), Adenosine-5′-triphosphate (ATP, Teknova cat. #A0220), native PIP3 (1,2-dioctanoyl-sn-glycero-3-[phosphoinositil-3,4,5-triphosphate]tetraammonium salt (Avanti polar lipids, 850186P), DMSO (Sigma, 472301).
PI3Kinase Reaction Buffer is prepared by diluting the stock 1:4 with de-ionized water. Freshly prepared DTT is added at a final concentration of 5 mM on the day of use. Enzyme addition and compound pre-incubation are initiated by the addition of 2.5 μL of PI3K (at twice its final concentration) in 1× reaction buffer to all wells using a Multidrop Combi. Plates are incubated at room temperature for 15 minutes. Reactions are initiated by addition of 2.5 μL of 2× substrate solution (PIP2 and ATP in 1× reaction buffer) using a Multidrop Combi. Plates are incubated at room temperature for one hour. Reactions are quenched by the addition of 2.5 μL of stop solution (Stop A and Stop B pre-mixed at a ratio of 5:1, respectively) to all wells using the Multidrop Combi. […]

In another test the target is T2, PI3Kβ (Homo sapiens, UniProt P42338).
T2 construct: made in house
T2 sequence (P42338 whole entry): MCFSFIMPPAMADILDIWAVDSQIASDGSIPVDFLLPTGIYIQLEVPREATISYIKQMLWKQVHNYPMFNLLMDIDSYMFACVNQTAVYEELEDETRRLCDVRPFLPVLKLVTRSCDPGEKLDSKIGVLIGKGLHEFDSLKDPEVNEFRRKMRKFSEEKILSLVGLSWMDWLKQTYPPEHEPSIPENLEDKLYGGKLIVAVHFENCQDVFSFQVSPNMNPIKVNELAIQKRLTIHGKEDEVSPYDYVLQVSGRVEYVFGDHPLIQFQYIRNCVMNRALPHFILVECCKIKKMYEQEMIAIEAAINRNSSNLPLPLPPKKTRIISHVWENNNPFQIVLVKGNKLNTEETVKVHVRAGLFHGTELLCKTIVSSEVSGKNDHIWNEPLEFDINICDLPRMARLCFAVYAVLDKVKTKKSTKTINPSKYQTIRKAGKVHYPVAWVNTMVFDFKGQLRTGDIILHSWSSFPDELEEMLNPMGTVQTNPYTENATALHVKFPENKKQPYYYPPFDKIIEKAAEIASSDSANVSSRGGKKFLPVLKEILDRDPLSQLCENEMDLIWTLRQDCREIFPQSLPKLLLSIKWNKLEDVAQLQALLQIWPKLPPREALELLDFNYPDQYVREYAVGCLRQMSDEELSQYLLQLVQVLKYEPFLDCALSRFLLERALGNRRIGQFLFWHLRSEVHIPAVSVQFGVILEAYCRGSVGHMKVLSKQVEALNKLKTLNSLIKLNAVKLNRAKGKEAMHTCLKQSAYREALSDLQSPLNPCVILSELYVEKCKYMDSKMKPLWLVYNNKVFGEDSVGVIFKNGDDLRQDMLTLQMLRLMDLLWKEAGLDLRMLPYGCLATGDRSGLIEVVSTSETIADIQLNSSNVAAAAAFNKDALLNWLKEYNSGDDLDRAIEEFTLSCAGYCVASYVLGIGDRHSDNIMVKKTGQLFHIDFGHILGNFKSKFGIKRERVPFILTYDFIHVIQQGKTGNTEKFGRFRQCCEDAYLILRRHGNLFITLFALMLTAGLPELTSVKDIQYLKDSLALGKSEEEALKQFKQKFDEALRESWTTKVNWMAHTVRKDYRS
T2 sequence (P27986 whole entry partner): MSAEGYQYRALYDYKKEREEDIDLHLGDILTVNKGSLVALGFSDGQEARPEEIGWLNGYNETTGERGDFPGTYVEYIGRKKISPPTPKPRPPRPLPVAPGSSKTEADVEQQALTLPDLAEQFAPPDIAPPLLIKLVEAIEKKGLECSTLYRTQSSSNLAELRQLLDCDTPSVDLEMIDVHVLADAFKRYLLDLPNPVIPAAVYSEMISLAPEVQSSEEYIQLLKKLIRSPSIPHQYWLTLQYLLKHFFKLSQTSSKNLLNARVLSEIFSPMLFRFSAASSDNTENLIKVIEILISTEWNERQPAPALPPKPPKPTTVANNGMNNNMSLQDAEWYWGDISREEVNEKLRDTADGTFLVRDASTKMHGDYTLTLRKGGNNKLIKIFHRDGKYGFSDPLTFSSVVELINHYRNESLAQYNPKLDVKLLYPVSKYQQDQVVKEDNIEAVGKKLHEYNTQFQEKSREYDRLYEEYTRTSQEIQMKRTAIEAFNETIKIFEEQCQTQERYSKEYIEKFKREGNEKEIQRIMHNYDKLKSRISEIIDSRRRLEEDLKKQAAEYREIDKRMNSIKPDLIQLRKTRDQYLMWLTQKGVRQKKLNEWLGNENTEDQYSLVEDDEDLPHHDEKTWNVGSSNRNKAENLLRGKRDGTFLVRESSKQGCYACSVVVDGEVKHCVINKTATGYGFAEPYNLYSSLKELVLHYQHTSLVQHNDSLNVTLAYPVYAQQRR
Description: HTRF in vitro profiling assay for PI3K inhibition, beta isoform. The class given is biochemical. As to conditions: in at least one experimental run; read-out: IC50 against PI3Kβ.
Excerpt: as §1, §2
as §3, with “The no-enzyme control reactions are run in wells 18 A, C, E, G, I, K, M, O (0.1 μL of 100% DMSO).” left out
(In general: Time-resolved FRET reads energy transfer from a long-lived donor to a nearby acceptor.)

[1] abbreviates: read-out: pIC50 against PI3Kδ (converted).

Structures are written as SMILES. Read-outs that look alike come from different tables or passages of the source.

T1 sequence (O00329 whole entry): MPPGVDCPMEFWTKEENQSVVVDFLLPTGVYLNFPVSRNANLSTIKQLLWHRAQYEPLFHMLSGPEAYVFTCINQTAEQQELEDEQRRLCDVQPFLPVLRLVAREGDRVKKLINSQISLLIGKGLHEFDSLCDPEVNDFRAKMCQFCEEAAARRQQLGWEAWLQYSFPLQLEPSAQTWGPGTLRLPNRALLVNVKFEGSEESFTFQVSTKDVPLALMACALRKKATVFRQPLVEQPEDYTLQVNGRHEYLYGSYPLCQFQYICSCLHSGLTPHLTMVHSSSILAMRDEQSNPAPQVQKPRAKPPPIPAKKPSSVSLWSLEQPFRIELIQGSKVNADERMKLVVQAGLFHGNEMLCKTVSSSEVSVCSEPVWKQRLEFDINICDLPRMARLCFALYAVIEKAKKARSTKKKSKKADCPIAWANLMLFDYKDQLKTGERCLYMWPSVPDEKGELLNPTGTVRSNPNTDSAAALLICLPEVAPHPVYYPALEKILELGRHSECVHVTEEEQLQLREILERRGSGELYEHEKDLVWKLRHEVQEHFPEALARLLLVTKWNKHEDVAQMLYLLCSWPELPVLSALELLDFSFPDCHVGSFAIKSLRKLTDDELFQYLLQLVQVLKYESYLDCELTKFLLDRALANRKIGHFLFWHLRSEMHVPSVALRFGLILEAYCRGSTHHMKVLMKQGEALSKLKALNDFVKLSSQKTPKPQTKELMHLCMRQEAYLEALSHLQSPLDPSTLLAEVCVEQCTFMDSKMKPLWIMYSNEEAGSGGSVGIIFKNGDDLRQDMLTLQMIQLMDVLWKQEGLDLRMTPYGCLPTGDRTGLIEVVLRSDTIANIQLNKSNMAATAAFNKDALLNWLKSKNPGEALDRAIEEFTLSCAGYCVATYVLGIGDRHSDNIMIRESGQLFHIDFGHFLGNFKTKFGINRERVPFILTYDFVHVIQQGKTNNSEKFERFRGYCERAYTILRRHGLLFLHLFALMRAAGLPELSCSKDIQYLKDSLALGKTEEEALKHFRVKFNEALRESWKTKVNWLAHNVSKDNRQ
T1 sequence (P27986 2-724 partner limits assumed): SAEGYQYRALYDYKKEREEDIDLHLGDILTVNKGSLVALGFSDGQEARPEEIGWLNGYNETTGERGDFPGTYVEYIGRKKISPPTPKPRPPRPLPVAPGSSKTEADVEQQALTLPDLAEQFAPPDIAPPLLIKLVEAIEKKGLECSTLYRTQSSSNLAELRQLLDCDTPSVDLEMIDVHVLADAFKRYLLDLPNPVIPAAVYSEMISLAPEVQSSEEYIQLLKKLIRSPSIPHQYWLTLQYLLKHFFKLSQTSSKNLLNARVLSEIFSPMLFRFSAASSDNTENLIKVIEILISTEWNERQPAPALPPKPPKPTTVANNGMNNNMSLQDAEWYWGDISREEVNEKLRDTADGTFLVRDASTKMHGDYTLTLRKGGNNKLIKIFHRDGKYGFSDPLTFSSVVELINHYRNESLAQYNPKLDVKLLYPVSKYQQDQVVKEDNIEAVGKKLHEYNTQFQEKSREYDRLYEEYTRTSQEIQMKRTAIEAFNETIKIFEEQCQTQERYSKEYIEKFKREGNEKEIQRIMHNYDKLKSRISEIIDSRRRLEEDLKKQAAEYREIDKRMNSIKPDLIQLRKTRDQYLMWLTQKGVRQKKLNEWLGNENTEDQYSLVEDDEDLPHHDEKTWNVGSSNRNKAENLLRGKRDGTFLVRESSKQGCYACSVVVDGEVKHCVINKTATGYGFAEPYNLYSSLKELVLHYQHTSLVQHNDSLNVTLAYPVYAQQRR

In the case of `CCc1nc(=O)c2sc(N3CCOCC3)nc2n1Cc1cccc(Cl)c1C` [Example 75, 4-[(3-chloro-2-methylphenyl)methyl]-5-ethyl-2-(4-morpholinyl)[1,3]thiazolo[4,5-d]pyrimidin-7(4H)-one], the IC50 on PI3Kδ (setting [1]) is 0.158 nM.

As for `Cc1c(Cl)cccc1Cn1c(CN)nc(=O)c2sc(N3CCOCC3)nc21` [Example 111, 5-(aminomethyl)-4-[(3-chloro-2-methylphenyl)methyl]-2-(4-morpholinyl)[1.3]thiazolo[4,5-d]pyrimidin-7(4H)-one], the IC50 on PI3Kδ (setting [1]) is 2.51 nM.

Turning to `Cc1c(Cl)cccc1Cn1c(C2CCCO2)nc(=O)c2sc(N3CCOCC3)nc21` (stereo not drawn) [Example 83, 4-[(3-chloro-2-methylphenyl)methyl]-2-(4-morpholinyl)-5-(tetrahydro-2-furanyl)[1,3]thiazolo[4,5-d]pyrimidin-7(4H)-one], at PI3Kδ (setting [1]), the IC50 is 1.26 nM.

Turning to `Cc1c(Cn2c(C)nc(=O)c3sc(N4CCOCC4)nc32)cccc1C(F)(F)F` [Example 59, 5-methyl-4-{[2-methyl-3-(trifluoromethyl)phenyl]methyl}-2-(4-morpholinyl)[1,3]thiazolo[4,5-d]pyrimidin-7(4H)-one], the IC50 on PI3Kβ came out at 0.5 nM.

On to `Cc1c(Cl)cccc1Cn1c(CO)nc(=O)c2sc(N3CCOCC3)nc21` [Example 84, 4-[(3-chloro-2-methylphenyl)methyl]-5-(hydroxymethyl)-2-(4-morpholinyl)[1,3]thiazolo[4,5-d]pyrimidin-7(4H)-one], for which, at PI3Kδ (setting [1]), the IC50 was 0.126 nM.

Turning to `O=c1ncn(Cc2ccccc2C(F)(F)F)c2nc(N3CCOCC3)sc12` [Example 1, 2-(4-morpholinyl)-4-{[2(trifluoromethyl)phenyl]methyl}[1,3]thiazolo[4,5-d]pyrimidin-7(4H)-one], the IC50 on PI3Kβ amounted to 320 nM.

Take `Cc1c(Cn2c(-c3ccccc3)nc(=O)c3sc(N4CCOCC4)nc32)cccc1C(F)(F)F` [Example 79, 4-{[2-methyl-3-(trifluoromethyl)phenyl]methyl}-2-(4-morpholinyl)-5-phenyl[1,3]thiazolo[4,5-d]pyrimidin-7(4H)-one]: the IC50 at PI3Kδ (setting [1]) was 50.1 nM.

Take `N#Cc1cccc(Cn2cnc(=O)c3sc(N4CCOCC4)nc32)c1` [Example 20, 3-{[2-(4-morpholinyl)-7-oxo[1,3]thiazolo[4,5-d]pyrimidin-4(7H)-yl]methyl}benzonitrile]: at PI3Kδ (read-out: IC50 against PI3Kδ), the IC50 worked out at 8 nM.

Turning to `Cc1c(Cl)cccc1Cn1cnc(=O)c2sc(N3CCOCC3)nc21` [Example 3, 4-[(3-chloro-2-methylphenyl)methyl]-2-(4-morpholinyl)[1,3]thiazolo[4,5-d]pyrimidin-7(4H)-one], at PI3Kβ, the IC50 stood at 400 nM.
